Laboratory results as given in patent US4755522A, “Derivatives of N-[3-(2,4,6-trimethoxybenzoyl)propyl]piperidine, and their use in therapeutics” (priority 1986, dated 1988).
Counter-ions that a name gives are not always drawn. Like-named read-outs stand apart in the source and are kept apart here.

Tests used:
arterial pressure = details: prior-technique compound; cited from earlier work
[1] = system: amphetaminic stereotypies; test: Amphetaminic stereotypies in the rat; type: in vivo
Description: (§1) The compound of example 2 in solution in distilled water (pH 5.5 to 6.0) was administered by intraperitoneal route at a rate of 20 ml/kg in mice (male, NMRI, C.E.R. January) and of 5 ml/kg to rats (male, CD1, Sprague Dawley, Charles River).

intergroup aggressivity = test: Intergroup aggressivity; details: in vivo
Description: as §1

reserpinic hypothermia = test: Reserpinic hypothermia; details: in vivo
Description: as §1

[2] = system: arrhythmias caused by I.V. injection of adrenaline; test: Arrhythmias caused by I.V. adrenaline in dogs with coronary artery previously ligatured; type: in vivo, dog
man = test: Anti-depressant effect in man; type: in vivo
cardio-vascular system = test: Action on the cardio-vascular system in the anaesthetized dog; type: in vivo; details: for minimal effective dose: Canis lupus familiaris, read-out: dose from which heart rate is significantly reduced
Description: (b) Action on the cardio-vascular system (in the dog).
(§2) 3 dogs (average weight, 12 kg) anaesthetized with nembutal, receive the compound by intra-duodenal route at successive doses of 0.1-0.5-2.5-10 and 20 mg/kg.
The arterial pressure, the cardiac rate, the femoral arterial flow, the vertebral arterial flow, the rectal and skin temperatures are all measured. The coloration of the skin is observed.
(§3) 3 dogs (average weight, 14 kg) anaesthetized with nembutal, received the CRL 41,390 by intra-duodenal route, at successive doses of 0.1-0.5-1-2.5-5-10-20 mg/kg, then a supplementary dose of 10 mg/kg I.V.
The arterial pressure, the cardiac frequency, the femoral arterial flow, the vertebral arterial flow, the rectal and cutaneous temperatures, were measured. The coloration of the skin was observed.

isoprenaline = test: Effects of isoprenaline on arterial pressure and cardiac rate after the compound (dog); type: in vivo; details: after CRL 41,390
Description: as §3

noradrenaline = test: Hypertension with noradrenaline after the compound (dog); type: in vivo; details: after CRL 41,390
Description: as §2, §3
Hypertension to noradrenaline is not modified: at 2 mcg/kg of noradrenaline, the systolic arterial pressure passes, after administration of the product, from 160 to 290 mmHg/161 to 289 mmHg in the control.

awakened dog = test: Anti-arrhythmic action on the awakened dog; type: in vivo
[3] = system: arrhythmias with aconitine; test: Arrhythmias with aconitine in the guinea-pig; type: in vivo
Description: The compound was administered by intravenous route at a dose of 10 mg/kg to a series of 10 albino guinea-pigs of 380 to 495 g, anaesthetized with urethane.
5 minutes later, they receive an I.V. perfusion of the product causing arrhythmia at a dosage of 0.09 mg/min. in a volume of 0.6 ml/min.
The compound is compared with quinidine at a dose of 5 mg/kg I>V> and with a series of controls.
Lots are drawn for the treatments.
B--Action on arrhythmias with aconitine.

[4] = I.D. 0.1-20 mg/kg then 10 mg/kg I.V.

For `COc1cc(OC)c(C(=O)CCCN2CCCC(C)C2)c(OC)c1` (centres unmarked) [CRL 41,034, (2,4,6-trimethoxyphenyl)-[3-(3-methylpiperidino)propyl] ketone], the “effect on the arterial pressure” value (arterial pressure) is listed as “hypotensive effect”.
For `CCOC(=O)C1CCCN(CCCC(=O)c2c(OC)cc(OC)cc2OC)C1` (centres unmarked) [CRL 41,389, ethyl N-[3-(2,4,6-trimethoxybenzoyl)propyl] nipecotate hydrochloride], the amphetaminic stereotypies [1] was “moderate potentialization”, the intergroup aggressivity (intergroup aggressivity) was “reduction of intergroup aggressivity” and the reserpinic hypothermia (reserpinic hypothermia) was “aggravation of reserpinic hypothermia”. For the same compound, the minimal effective dose ([2]; Canis lupus familiaris, iv, read-out: dose from which arrhythmias are reduced) was 2.5 mg/kg, the “arrhythmias caused by I.V. adrenaline” value ([2]; from 2.5 mg/kg) was “reduces arrhythmias” and the effect in man (man) was “anti-depressant stimulant”.
For `COc1cc(OC)c(C(=O)CCCN2CCCC(C(=O)O)C2)c(OC)c1.Cl` (centres unmarked) [CRL 41,390, N-[3-(2,4,6-trimethoxybenzoyl)propyl]-3-piperidine carboxylic acid hydrochloride], the “effect on vertebral flow” value (cardio-vascular system; 20 mg/kg) was “reduction in the vertebral flow”, the “effect on femoral flow” value (cardio-vascular system; 20 mg/kg, particularly in a dog) was “slight increase in the femoral flow” and the minimal effective dose (cardio-vascular system; intraduodenal) was 20 mg/kg. For the same compound, the minimal effective dose (cardio-vascular system; iv, I.V.) was 2.5 mg/kg, the “effect on rectal and cutaneous temperatures” value (cardio-vascular system; [4]) was “moderately reduced” and the “effect on the arterial pressure” value (cardio-vascular system; [4]) was “no effect on the arterial pressure”. The “effect on heart rate” value (cardio-vascular system; from I.V. 2.5 mg/kg and intraduodenal 20 mg/kg) was “significantly reduces the heart rate”, the “diastolic arterial pressure after the product, with isoprenaline” value (isoprenaline; 10 mcg/kg isoprenaline, control 35) was 44 mmHg and the “cardiac frequency after the product, with isoprenaline” value (isoprenaline; 10 mcg/kg isoprenaline, control 272) was 250 beats/min. For the same compound, the “effects of isoprenaline on diastolic arterial pressure and cardiac frequency” value (isoprenaline) was “slightly reduced”, the “diastolic arterial pressure after the product, before isoprenaline” value (isoprenaline; control 135) was 131 mmHg and the “cardiac frequency after the product, before isoprenaline” value (isoprenaline; control 185) was 148 beats/min. For the same compound, the “systolic arterial pressure after the product, with noradrenaline” value (noradrenaline; 2 mcg/kg noradrenaline, control 289) was 290 mmHg, the hypertension to noradrenaline (noradrenaline) was “not modified” and the “systolic arterial pressure after the product, before noradrenaline” value (noradrenaline; control 161) was 160 mmHg. For the same compound, the anti-arrhythmic action (awakened dog) was “no anti-arrhythmic action”.
In the case of `C=C[C@H]1C[N@@]2CC[C@H]1C[C@@H]2[C@@H](O)c1ccnc2ccc(OC)cc12` [quinidine, reference compound], the “appearance of ventricular tachycardia due to aconitine” value ([3]; quinidine 5 mg/kg I.V.) is reported as “significantly retards only the appearance of ventricular tachycardia”, the “retardation of ventricular tachycardia (average)” value ([3]; quinidine 5 mg/kg I.V.) is reported as “+30%” and the “retardation compared with the compound according to the invention” value ([3]; quinidine 5 mg/kg I.V. vs compound 10 mg/kg I.V.) is reported as “significantly less than that observed with the compound according to the invention”.
